Data: patent US4156724A, “N-acylamino-alpha-arylacetamido cephalosporins and antibacterial compositions and methods containing them” (Sumitomo Chemical Company, Limited, priority 1974, dated 1979)
Values after ≈ are worked out from the molar mass of the structure shown. Read-outs that look alike come from different tables or passages of the source.

Tests used:
Format in all cases: cell-based
[1] = test system: Staphylococcus aureus FS 289; assay: Minimum Inhibitory Concentration, Staphylococcus aureus FS 289; details: FS289; Staphylococcus aureus FS 289, strain resistant to penicillin; read-out: Minimum Inhibitory Concentration
Description: (§1) anti-microbial activity tests were carried out on the compounds obtained in the Examples.
*Staphylococcus aureus FS 289: strain resistant to penicillin

[2] = test system: Pseudomonas aeruginosa 104; assay: Minimum Inhibitory Concentration, Pseudomonas aeruginosa 104; details: Pseudomonas aeruginosa 104; read-out: Minimum Inhibitory Concentration
Description: as §1

[3] = test system: Enterobacter aerogeneus No. 75; assay: Minimum Inhibitory Concentration, Enterobacter aerogeneus No. 75; details: Enterobacter aerogeneus No. 75; read-out: Minimum Inhibitory Concentration
Description: as §1

Escherichia coli NIHJ = assay: Minimum Inhibitory Concentration, Escherichia coli NIHJ; details: read-out: Minimum Inhibitory Concentration
Description: as §1

Serratia No. 72 = assay: Minimum Inhibitory Concentration, Serratia No. 72
Description: as §1

[4] = test system: Staphylococcus aureus 209 P; assay: Minimum Inhibitory Concentration, Staphylococcus aureus 209 P; details: Staphylococcus aureus 209 P; read-out: Minimum Inhibitory Concentration
Description: as §1

Proteus vulgaris HX 19 = assay: Minimum Inhibitory Concentration, Proteus vulgaris HX 19; details: HX19; Proteus vulgaris HX 19; read-out: Minimum Inhibitory Concentration
Description: as §1

[5] = test system: Klebsiella pneumoniae 602; assay: Minimum Inhibitory Concentration, Klebsiella pneumoniae 602
Description: as §1

[6] = Klebsiella pneumoniae, 602, Klebsiella pneumoniae 602, read-out: Minimum Inhibitory Concentration

Row | Compound | MIC [1] | MIC [2] | MIC [3] | MIC (Escherichia coli NIHJ; Escherichia coli NIHJ) | MIC (Serratia No. 72) | MIC [4] | MIC (Proteus vulgaris HX 19) | MIC [5, 6] | MIC (Escherichia coli NIHJ; Escherichia coli) | MIC ([5]; Klebsiella pneumoniae, 602, read-out: Minimum Inhibitory Concentration)
1 | Cn1nnnc1SCC1=C(C(=O)O)N2C(=O)[C@@H](NC(=O)[C@H](NC(=O)c3cnccc3O)c3ccc(NC(N)=O)cc3)[C@H]2SC1 [Example 13, 7-[D-α-(4-Hydroxypyridine-3-carboxyamido)-α-(p-ureidophenyl)acetamido]-3-(1-methyltetrazol-5-yl)-thiomethyl-3-cephem-4-carboxylic Acid] | 6.25 µg/mL (≈ 9.76 µM) | 6.25 µg/mL (≈ 9.76 µM) | 12.5 µg/mL (≈ 19.5 µM) | 6.25 µg/mL (≈ 9.76 µM) | 50 µg/mL (≈ 78 µM) | 0.39 µg/mL (≈ 0.609 µM) | 0.2 µg/mL (≈ 0.312 µM) | 3.13 µg/mL (≈ 4.89 µM) |  | 
2 | Cc1nnc(SCC2=C(C(=O)O)N3C(=O)C(NC(=O)C(NC(=O)c4ccnnc4O)c4ccc(CO)cc4)C3SC2)s1 (stereo not drawn) [Example 93] | 12.5 µg/mL (≈ 19.9 µM) | 12.5 µg/mL (≈ 19.9 µM) | 25 µg/mL (≈ 39.7 µM) | 12.5 µg/mL (≈ 19.9 µM) | 50 µg/mL (≈ 79.4 µM) | 0.78 µg/mL (≈ 1.24 µM) | 0.2 µg/mL (≈ 0.318 µM) | 12.5 µg/mL (≈ 19.9 µM) |  | 
3 | CC(=O)OCC1=C(C(=O)O)N2C(=O)C(NC(=O)[C@H](NC(=O)c3cnccc3O)c3ccc(O)cc3)C2SC1 (stereo partly drawn) [Example 113, 7-[D-α-(4-Hydroxypyridine-3-carbonamido)-α-p-hydroxyphenylacetamido]cephalosporanic Acid] | 3.13 µg/mL (≈ 5.77 µM) | 6.25 µg/mL (≈ 11.5 µM) | 25 µg/mL (≈ 46.1 µM) | 12.5 µg/mL (≈ 23 µM) | > 200 µg/mL | 0.39 µg/mL (≈ 0.719 µM) | 0.2 µg/mL (≈ 0.369 µM) | 12.5 µg/mL (≈ 23 µM) |  | 
4 | Nc1cccc([C@@H](NC(=O)c2cnc3cccnc3c2O)C(=O)NC2C(=O)N3C(C(=O)O)=C(CSc4nncs4)CSC23)c1 (stereo partly drawn) [Example 64, 7-[D-α-(4-Hydroxy-1,5-naphthyridine-3-carbonamido)-α-m-aminophenylacetamido]-3-(1,3,4-thiadiazol-5-yl)thiomethyl-3-cephem-4-carboxylic acid] | 6.25 µg/mL (≈ 9.6 µM) | 6.25 µg/mL (≈ 9.6 µM) | 3.13 µg/mL (≈ 4.81 µM) | 1.56 µg/mL (≈ 2.4 µM) | 12.5 µg/mL (≈ 19.2 µM) | 1.56 µg/mL (≈ 2.4 µM) | 0.1 µg/mL (≈ 0.154 µM) | 3.13 µg/mL (≈ 4.81 µM) |  | 
5 | Cc1ccc2c(O)c(C(=O)NC(C(=O)NC3C(=O)N4C(C(=O)O)=C(CSc5nnc(C)s5)CSC34)c3ccc(CO)cc3)cnc2n1 (stereo not drawn) [Example 100] | 6.25 µg/mL (≈ 9.01 µM) | 6.25 µg/mL (≈ 9.01 µM) | 6.25 µg/mL (≈ 9.01 µM) | 3.13 µg/mL (≈ 4.51 µM) | 50 µg/mL (≈ 72.1 µM) | 1.56 µg/mL (≈ 2.25 µM) | 0.39 µg/mL (≈ 0.562 µM) | 6.25 µg/mL (≈ 9.01 µM) |  | 
6 | O=C(O)C1=C(CSc2nnc(CO)s2)CSC2C(NC(=O)C(NC(=O)c3cnc4cccnc4c3O)c3cccc(O)c3)C(=O)N12 (stereo not drawn) [Example 181] | 6.25 µg/mL (≈ 9.17 µM) | 3.13 µg/mL (≈ 4.59 µM) | 6.25 µg/mL (≈ 9.17 µM) | 1.56 µg/mL (≈ 2.29 µM) | 12.5 µg/mL (≈ 18.3 µM) | 0.78 µg/mL (≈ 1.14 µM) | 0.2 µg/mL (≈ 0.293 µM) | 1.56 µg/mL (≈ 2.29 µM) |  | 
7 | NC(=O)Nc1cccc(C(NC(=O)c2cnccc2O)C(=O)NC2C(=O)N3C(C(=O)O)=C(CSc4ccc(O)nn4)CSC23)c1 (stereo not drawn) [Example 46] | 6.25 µg/mL (≈ 9.58 µM) | 12.5 µg/mL (≈ 19.2 µM) | 12.5 µg/mL (≈ 19.2 µM) | 12.5 µg/mL (≈ 19.2 µM) | 50 µg/mL (≈ 76.6 µM) | 0.78 µg/mL (≈ 1.2 µM) | 0.39 µg/mL (≈ 0.598 µM) | 3.13 µg/mL (≈ 4.8 µM) |  | 
8 | CC(=O)OCC1=C(C(=O)O)N2C(=O)C(NC(=O)[C@H](NC(=O)c3cnc4cccnc4c3O)c3ccc(O)cc3)C2SC1 (stereo partly drawn) [Example 120, 7-[D-α-(4-Hydroxy-1,5-naphthyridine-3-carbonamido)-α-hydroxyphenylacetamido]cephalosporanic Acid] | 6.25 µg/mL (≈ 10.5 µM) | 6.25 µg/mL (≈ 10.5 µM) | 6.25 µg/mL (≈ 10.5 µM) |  | 50 µg/mL (≈ 84.2 µM) | 0.78 µg/mL (≈ 1.31 µM) | 0.39 µg/mL (≈ 0.657 µM) |  | 3.13 µg/mL (≈ 5.27 µM) | 1.56 µg/mL (≈ 2.63 µM)
9 | Cc1ccc2c(O)c(C(=O)NC(C(=O)NC3C(=O)N4C(C(=O)O)=C(CSc5nnn(C)n5)CSC34)c3cccc(N)c3)cnc2n1 (stereo not drawn) [Example 63] | 6.25 µg/mL (≈ 9.43 µM) | 6.25 µg/mL (≈ 9.43 µM) | 12.5 µg/mL (≈ 18.9 µM) | 6.25 µg/mL (≈ 9.43 µM) | 50 µg/mL (≈ 75.4 µM) | 1.56 µg/mL (≈ 2.35 µM) | 0.1 µg/mL (≈ 0.151 µM) | 1.56 µg/mL (≈ 2.35 µM) |  | 
